Reference: patent publication US4621077A, “Pharmacologically active biphosphonates, process for the preparation thereof and pharmaceutical compositions therefrom” (Istituto Gentili S.p.A., priority 1982, dated 1986)
Like-named read-outs stand apart in the source and are kept apart here.

Experiments:
[1] = in vivo; conditions: mouse, Swiss mice, read-out: DL50 (the source's name)
Description: For this study Swiss mice, both male and female, have been utilized: during the experiment, the animals are fed according to the method with Altromin in the form of tablets. For the oral and intraperitoneal administration, there are used 5% gum arabic solutions while saline solutions of pH 4 are used for the intravenous injections.
The preliminary values of DL50 are calculated according to a graphic method.

[2] = system: bone reabsorption (metaphyseal bone density); experiment: Metaphyseal bone density / inhibition of bone reabsorption in rats treated for 7 days; assay type: in vivo; conditions: 7 days, rats
[3] = for product Ca++ × Pi in solution after incubation: 37° C., two days, control 29, prior to incubation 114.7
Description: A model system is used to evaluate the ability of the phosphonates to inhibit the formation of crystals in inorganic solutions. Three solutions are prepared according to Fleisch.
The pH is brought to 7.4 by means of potassium hydroxide. The concentration of Ca^++ was 6.7 mg%, a level similar to the calcium in blood which has been subjected to untrafiltration and the concentration of the inorganic phosphate Pi give a product Ca^++ ×Pi=80. The solution was analyzed for Ca^++ and Pi and was distributed in Erlenmeyer flasks 12 cc each. The flasks were divided in groups as follows:
and then they are incubated under stirring at 37° C. for two days.
At the end of incubation, the solutions are passed through "millipore filters" for the purpose of retaining the ctystals which are formed during the incubation; the filtrate then is analyzed for Ca^++ and Pi. The results are also reported in Table 2 as the product of Ca^++ x Pi in the solution at the end of the experiment.

[4] = system: skull cells (lactate production); experiment: cells; assay type: cell-based, Wistar rats; conditions: for activity at 2.5 µM / activity at 25 µM / activity at 250 µM: Rattus norvegicus, 16 h, read-out: Effect on the production of lactate ± S.E.M.
Description: (§1) Cellular culture: the cells are cultured according to the method described by Fast et al, (Biochem. J. 172, 97-107 (1978)). By way of summary, the skulls removed from Wistar rats, one day old, are digested with collagenase. The cells set free are placed on a plate with concentration of 200,000 cells per cc of medium in disks "clusters" suitable for culture, the plates having 24 wells of 1.6 cm in diameter containing 0.5 cc of medium. The cells are cultivated in the essential minimum medium containing 10% of foetal calf serum in an atmosphere of 5% CO2 at 37° up to the eighth day. The bisphosphonates are added on the first day up to the end of the experiment. The medium is changed on the first, fourth and seventh day.
On the seventh day, the medium is changed and the cells are incubated for 16 hours. The lactate produced during this period is measured in an extract in HClO4 of the medium using lactatodehydrogenase.

[5] = system: skull cells; experiment: cells; assay type: cell-based, Wistar rats; conditions: for activity at 2.5 µM / activity at 25 µM / activity at 250 µM: Rattus norvegicus, read-out: Effect on the cellular number ± S.E.M.
Description: as §1
The cells are counted with a Coulter counter after they have been set free from the disks by digestion with a mixture of collagenase and trypsin.

[6] = system: bone reabsorption and mineralization (tibia, trabecular metaphysis); assay type: in vivo, Wistar rats
Description: Groups of five Wistar rats of weight 180-200 grams are treated for a period of seven days with 0.1, 1.0 and 10 mg of P/kg of the following biphosphonic acids:
The animals kept as a control were administered the solvent with NaCl. All the treatments were carried out by the subcutaneous route. […] The animals were fed with Altromine 1314 containing 1.1 g/100 g P and 250 IU/100 g of vitamin D3. On the eighth day, the animals were killed and the tibia was removed and fixed in 50% ethanol. The tibiae were then dehydrated in increasing concentration of ethanol and allowed to soak in methylmethacrylate after the addition of Plastoid N. Frontal sections were removed and cut to a thickness of 70-80 μm and then the sections were submitted to microradiography. This procedure permitted to evaluate the density of the mineral in the trabecular metaphysis according to the method of Shenk et al., Calc. Tiss. Res. 11, 196-214, 1973).
One animal per group has been evaluated.

O=P(O)(O)C(Cl)(Cl)P(=O)(O)O [Cl2 MBP, dichloromethanebiphosphonic acid]
LD50 ([1]; ip): 750 mg/kg
LD50 ([1]; iv): 130 mg/kg
LD50 ([1]; po, os): > 2000 mg/kg
metaphysical density ([2]; 0.1 mg P/kg s.c., s.c. NaCl controls 29.72): 38.21 % volume of calcified tissue
metaphysical density ([2]; 1.0 mg P/kg s.c., s.c. NaCl controls 29.72): 47.00 % volume of calcified tissue
metaphysical density ([2]; 2.0 mg P/kg p.o., p.o. NaCl controls 28.45): 31.20 % volume of calcified tissue
metaphysical density ([2]; 10.0 mg P/kg s.c., s.c. NaCl controls 29.72): 52.65 % volume of calcified tissue
product Ca++ × Pi in solution after incubation ([3]; 0.5 μM): 44.0
product Ca++ × Pi in solution after incubation ([3]; 2.5 μM): 60.4
product Ca++ × Pi in solution after incubation ([3]; 5.0 μM): 73.6
effect on the production of lactate, in words [4]: diminishes it
activity at 2.5 µM ([4]; 2.5 μM): 87.5 ± 4%
activity at 25 µM ([4]; 25 μM): 67.1 ± 2.8%
activity at 250 µM ([4]; 250 μM): 16.9 ± 2.2%
effect on the number of cells, in words [5]: causes a decrease in the number of cells
activity at 2.5 µM ([5]; 2.5 μM): 103 ± 0.7%
activity at 25 µM ([5]; 25 μM): 86.4 ± 2.1%
activity at 250 µM ([5]; 250 μM): 54.5 ± 1.9%

O=P(O)(O)C(F)(F)P(=O)(O)O [F2 MBP, difluoromethanebiphosphonic acid]
LD50 ([1]; ip): 450 mg/kg
LD50 ([1]; iv): 70 mg/kg
LD50 ([1]; po, os): > 2000 mg/kg
product Ca++ × Pi in solution after incubation ([3]; 0.5 μM): 44.6
product Ca++ × Pi in solution after incubation ([3]; 2.5 μM): 58.5
product Ca++ × Pi in solution after incubation ([3]; 5.0 μM): 72.0
inhibitory activity on the formation and growth of crystals of apatite ([3]; in vitro): inhibits the growth in vitro of the crystals of apatite
effect on the production of lactate, in words [4]: no effect
activity at 2.5 µM [4]: 112 ± 4.4%
activity at 25 µM [4]: 106 ± 3.9%
activity at 250 µM [4]: 99.7 ± 4.7%
effect on mineralization, in words ([6]; 10 mg of P/kg / high dosage where stated): no effect on the bone reabsorption or on the bone mineralization
effect on bone reabsorption, in words ([6]; rat, in vivo): no effect on the bone reabsorption
effect on the number of cells, in words [5]: no effect or a very small effect
activity at 2.5 µM [5]: 88.1 ± 1.4%
activity at 25 µM [5]: 92.4 ± 1.9%
activity at 250 µM [5]: 99.3 ± 2%
